Assay results: ChEMBL document CHEMBL5329159, “Anti-proliferative activity of nitroquinolone fused acylhydrazones as non-small cell human lung cancer agents” (RSC Med Chem, 2023)
The source made the active and inactive calls. The rule behind the calls is not given here.

How the values were obtained:
A549 [1] = test: Cytotoxicity against human A549 cells assessed as reduction in cell viability incubated for 72 hrs by MTT assay; assay type: functional, cell-based; conditions: A549, 72 h
[2] = Cytotoxicity against HEK cells assessed as reduction in cell viability upto 200 uM incubated for 72 hrs by MTT assay; assay type: toxicity, cell-based; conditions: human
HeLa = test: Cytotoxicity against human HeLa cells assessed as reduction in cell viability incubated for 72 hrs by MTT assay; assay type: functional, cell-based
MCF7 = test: Cytotoxicity against human MCF7 cells assessed as reduction in cell viability incubated for 72 hrs by MTT assay; assay type: functional, cell-based; conditions: MCF7, 72 h
A549 [3] = test: Induction of morphological changes in human A549 cells assessed as membrane blebbing by inverted light microscopic analysis; assay type: functional, cell-based
A549 [4] = test: Induction of apoptosis in human A549 cells by AO/EtBr staining based fluorescence microscopic analysis; assay type: functional, cell-based
A549 [5] = test: Induction of morphological changes in human A549 cells assessed as formation of floating cells by inverted light microscopic analysis; assay type: functional, cell-based
A549 [6] = test: Induction of cell cycle arrest in human A549 cells assessed as accumulation of cells at S phase after 24 hrs by PI/RNase staining based flow cytometry analysis; assay type: functional
A549 [7] = test: Induction of cell cycle arrest in human A549 cells assessed as accumulation of cells at G0/G1 phase after 24 hrs by PI/RNase staining based flow cytometry analysis; assay type: functional
A549 [8] = test: Induction of nuclear fragmentation in human A549 cells incubated for 24 hrs by DAPI staining based fluorescence microscopic analysis; assay type: functional, cell-based
A549 [9] = test: Induction of morphological changes in human A549 cells assessed as cell shrinkage by inverted light microscopic analysis; assay type: functional, cell-based
[10] = Induction of morphological changes in HEK cells assessed as cell detachment incubated for 24 hrs by inverted light microscopic analysis; assay type: toxicity, cell-based; conditions: human
A549 [11] = test: Induction of chromatin condensation in human A549 cells incubated for 24 hrs by DAPI staining based fluorescence microscopic analysis; assay type: functional, cell-based
A549 [12] = test: Induction of cell cycle arrest in human A549 cells assessed as accumulation of cells at G2/M phase after 24 hrs by PI/RNase staining based flow cytometry analysis; assay type: functional
[13] = Induction of morphological changes in HEK cells assessed as cell blebbing incubated for 24 hrs by inverted light microscopic analysis; assay type: toxicity, cell-based; conditions: human

Row | Compound | IC50 (A549 [1]) | Activity [2] | IC50 (HeLa) | IC50 (MCF7) | Activity (A549 [3]) | Activity (A549 [4]) | Activity (A549 [5]) | Activity (A549 [6]) | Activity (A549 [7]) | Activity (A549 [8]) | Activity (A549 [9]) | Activity [10] | Activity (A549 [11]) | Activity (A549 [12]) | Activity [13]
1 | O=C(N/N=C1\CCNc2c1cccc2[N+](=O)[O-])c1ccco1 | 18.3 µM | Non-Toxic | 30.4 µM | 22.5 µM | – | – | – | – | – | – | – | – | – | – | –
2 | O=C(N/N=C1\CCNc2c1cc(Cl)cc2[N+](=O)[O-])c1cccnc1 | 23.1 µM | Non-Toxic | 26.8 µM | 20.5 µM | – | – | – | – | – | – | – | – | – | – | –
3 | O=C(N/N=C1\CCNc2c1cc(Cl)cc2[N+](=O)[O-])c1ccccc1O | 15.3 µM | Non-Toxic | 21.3 µM | 18.4 µM | Dose-Dependent Effect | Active | Dose-Dependent Effect | Active | Active | Active | Dose-Dependent Effect | Non-Toxic | Active | Active | Non-Toxic
4 | O=C(N/N=C1\CCNc2c1cc(Cl)cc2[N+](=O)[O-])c1cccs1 | 17.1 µM | Non-Toxic | 20.1 µM | 19.2 µM | Dose-Dependent Effect | Active | Dose-Dependent Effect | Active | Active | Active | Dose-Dependent Effect | Non-Toxic | Active | Active | Non-Toxic
5 | O=C(N/N=C1\CCNc2c1cc(Cl)cc2[N+](=O)[O-])c1ccco1 | 24.5 µM | Non-Toxic | 32.5 µM | 25.5 µM | – | – | – | – | – | – | – | – | – | – | –
6 | COc1cccc2c1C(=O)c1c(O)c3c(c(O)c1C2=O)C[C@@](O)(C(=O)CO)C[C@@H]3O[C@H]1C[C@H](N)[C@H](O)[C@H](C)O1 [DOXORUBICIN] | – | Non-Toxic | 13.5 µM | 11.6 µM | – | – | – | – | – | – | – | – | – | – | –
7 | O=C(N/N=C1\CCNc2c1cccc2[N+](=O)[O-])c1ccccc1O | 15.8 µM | Non-Toxic | 24.5 µM | 20.2 µM | – | – | – | – | – | – | – | – | – | – | –
8 | O=C(N/N=C1\CCNc2c1cccc2[N+](=O)[O-])c1cccs1 | 26.3 µM | Non-Toxic | 29.6 µM | 22.8 µM | – | – | – | – | – | – | – | – | – | – | –
9 | O=C(N/N=C1\CCNc2c1cccc2[N+](=O)[O-])c1cccnc1 | 21.5 µM | Non-Toxic | 29.2 µM | 23.3 µM | – | – | – | – | – | – | – | – | – | – | –
